How the values were obtained:
Format in all cases: biochemical
caspase-3 [1] = test: Caspase-3 activation in HeLa cell lysate/S-100 (Ac-DEVD-pNA cleavage, HTS)
Method: Other means of measuring caspoase-3 activation are also encompassed herein and are readily known to those of ordinary skill in the art.
With respect to Example I, the high throughput screening (HTS) was essentially a cell-lysate assay in which the endpoint, activation of caspase-3, was monitored by the cleavage of a calorimetric substrate. HeLa cell lysate was prepared by Cellex Bioscience (Minneapolis, Minn.). This lysate was thawed and centrifuged before use (15K rpm in a JA20 Beckman rotor, Fullerton, Calif.). […] The plates were allowed to incubate for three to four hours. When 90% of the Ac-DEVD-pNA (Bachem L1945) was converted by the activated capsase-3 in the control plate, the screening plates were read again at 390 nm. The change in absorbency was scaled to the fully-activated control (cytochrome c) and the negative control (no compound).

[2] = tested on: caspase-3 (procaspase-3 cleavage); test: Caspase-3 activation reconstituted with HeLa S-100 fractions (Q-ft, Q30, Q100) and purified/recombinant proteins
Excerpt: To study the mechanism, HeLa cell S-100 extracts were fractionated using an anion exchange column. […] The first fraction, Q-ft, flew through the column and contained cytochrome c (Liu et al., Cell 86:147 (1996)). The second fraction, Q30, was eluted with 0.3 M NaCl and contained Apaf-1 (Zou et al., Cell 90:405 (1997)) and procaspase-9 (Li et al., Cell 91:479 (1997)). The third fraction, Q100, was eluted with 1 M NaCl. These three fractions were then used in different combinations to search for proteins that might mediate the PETCM effect.
The inhibitory activity was assayed by adding column fractions to the mixture of Q30/cytochrome c/PHAP/dATP.
Ten ml of HeLa S-100 (˜60 mg total protein) was loaded on a 1-ml HiTrap Q column (Pharmacia) pre-equilibrated with Buffer A (i.e., 20 mM Hepes-KOH, pH7.5, 10 mM KCl, 1.5 mM Mg Cl2, 1 mM sodium EDTA and 1 mM sodium EGTA, 1 mM dithiothreitol, and 0.1 mM PMSF). The flowthrough (Q-ft) was collected. After being washed with 10-ml of Buffer A, the column was eluted with 10-ml of Buffer A containing 300 mM NaCl, and the eluted protein peak ([…]) was collected (Q30). Subsequently, the column was eluted with Buffer A containing 1 M NaCl, and the protein peak (−3 ml) was collected and dialyzed for overnight (Q100).

Apaf-1 (apoptosome) = test: Apoptosome formation in HeLa cell S-100, gel-filtration chromatography and Western blot against Apaf-1
Method: In order to find out how this small molecule ([…]) promotes activation of caspase-3, apoptosome formation was analyzed using gel-filtration chromatography followed by Western blot analysis against Apaf-1 (Zou H et al., Cell 90:405-413, 1997). Other methods known to those of ordinary skill in the art may also be used for such an analysis.

caspase-3 [3] = test: Caspase-3 activation in extracts from RNAi treated HeLa cells; details: extracts from control RNAi treated-cells (FIG. 6D)
Excerpt: (SEQ ID NO:7) and […] (SEQ ID NO:9) and […]

[4] = tested on: apoptosome (Apaf-1/caspase-9); test: Apoptosome formation and caspase-9 activation in reconstituted system (Q30, cytochrome c, dATP)
Method: FIG. 5 illustrates regulation of apoptosome by ProT and PHAP. FIG. 5(A) illustrates that PHAP accelerates caspase-3 activation after PETCM antagonizes the inhibitory activity of ProT. FIG. 5(B) illustrates that ProT inhibits apoptosome formation, and PETCM can antagonize the inhibitory activity. FIG. 5(C) illustrates that PHAP enhances caspase-9 activation. Apoptosome formation was measured as described in FIG. 1.
Subsequently, regulation of apoptosome by these players was tested. […] PETCM promotes caspase-3 activation by removing the inhibition of ProT on apoptosome formation, allowing PHAPs to stimulate apoptosome activity.

[5] = tested on: extracts from human tumor cells (caspase activation); test: Response of extracts from a battery of human tumor cells to PETCM; details: colon cancer, prostate cancer, promyelocytic leukemia, T cell leukemia, bone marrow leukemia, malignant melanoma, lymphoma, glioblastoma cells
Method: Extracts from a battery of human tumor cells were also screened for their response to PETCM. It was determined that many human cancer lines, including colon cancer, prostate cancer, promyelocytic leukemia, T cell leukemia, bone marrow leukemia, malignant melanoma, lymphoma, and glioblastoma cells were responsive. […] PETCM and the PETCM-stimulated caspase activation pathway are therefore of fundamental and clinical significance with respect to malignant mammalian cells. Thus, the present invention encompasses a method of stimulating caspase activity in malignant cells comprising exposing said cells to PETCM or administering PETCM to said cells.

In the case of `OC(Cc1ccncc1)C(Cl)(Cl)Cl` (stereo not drawn) [PETCM, alpha-(trichloromethyl)-4-Pyridineethanol], the “efficiency in activating caspase-3 compared with dATP” value (caspase-3 [1]; 0.2 mM PETCM vs 1.0 mM dATP) is reported as “more efficient in activating caspase-3 than 1.0 mM dATP”, the “DEVD activity of HeLa S-100” value (caspase-3 [1]; FIG. 1(B), increasing amounts of PETCM) is reported as “stimulates DEVD activity of HeLa S-100 in a dose-dependent manner” and the “reversal of Q100 suppression of PHAP stimulatory activity” value ([2]; PHAP with Q100 added back (FIG. 4A, lanes 5-6)) is reported as “the suppression was reversed by the addition of PETCM”. The caspase-3 activation ([2]; Q30, cytochrome c, 10 μM dATP, PHAPI, ProT, with PETCM (FIG. 5A, lane 4)) was “the inhibitory effect of ProT was reversed”, the caspase-3 activation ([2]; Q-ft + Q30 + Q100, 0.2 mM PETCM with 10 μM dATP (lane 5)) was “caspase-3 activation was observed at 10 μM dATP” and the caspase-3 activation ([2]; Q-ft + Q30 + Q100, PETCM, dATP completely omitted (lane 4)) was “No caspase-3 activation was seen”. For the same molecule, the “efficiency of apoptosome formation compared with dATP” value (Apaf-1 (apoptosome); 0.2 mM PETCM vs 1 mM dATP) was “better than 1 mM dATP”, the “apoptosome formation (Apaf-1 shift)” value (Apaf-1 (apoptosome); S-100 incubated with 0.2 mM PETCM) was “Apaf-1 was also shifted to the position of apoptosome” and the “caspase-3 activation in extracts, PETCM requirement” value (caspase-3 [3]) was “responsive to PETCM”. For the same molecule, the apoptosome formation ([4]; FIG. 5B, ProT plus PETCM) was “relieved the blockage” and the “response of human cancer line extracts to PETCM” value [5] was “responsive”.

In the case of `Nc1ncnc2c1ncn2[C@H]1C[C@H](O)[C@@H](COP(=O)(O)OP(=O)(O)OP(=O)(O)O)O1` [dATP, 2′-deoxyadenosine-5′-triphosphate, reference compound], the caspase-3 activation ([2]; Q-ft + Q30 + Q100, 10 μM dATP (lane 3)) is reported as “little caspase-3 activation was observed”, the caspase-3 activation ([2]; Q-ft + Q30 + Q100, 1 mM dATP (lane 2)) is reported as “robust caspase-3 activation” and the “apoptosome formation (Apaf-1 shift)” value (Apaf-1 (apoptosome); S-100 incubated with 1 mM dATP) is reported as “most of the Apaf-1 was shifted to the size of ˜1 million Dalton”.

“PHAPI: recombinant His-tagged PHAPI, putative tumor suppressor protein that stimulates caspase activation” was tested, and the caspase-3 activation ([2]; Q30 fraction plus cytochrome c and 10 μM dATP (FIG. 5A, lane 2)) was “stimulated caspase-3 activation”, the apoptosome formation ([4]; presence of PHAPI) was “did not affect the efficiency of apoptosome formation” and the caspase-9 activation ([4]; presence of PHAPI (FIG. 5C)) was “more activated caspase-9 was observed”.

Reference: patent US20050080102A1, “Compound and uses thereof” (priority 2002, published 2005)
